# Where no end group is shown, it is not given here.
# Test system: osteosarcoma cells
# Experiment: Immunofluorescence of cell adhesion and morphology on grafted polymer scaffolds (actin, vinculin, DAPI)
# Type: cell-based
# Details: polymer scaffold covalently modified with mixture of GFR-binding compound and RGD peptide, 24 hours of culture
# Description: FIG. 9 is (a) a representation of a Quantitative Real Time PCR analysis of the expression of DMP-1, SCT and RANK-L in neoplastic cells (osteosarcoma cells) cultured on a native polymer scaffold (control) and on a polymer scaffold grafted with a mixture comprising a GFR-binding compound as defined in the present disclosure and a RGD peptide, after 24 hours of culture, (b) immunofluorescence staining of a representative neoplastic cell (osteosarcoma cells) cultured on a polymer scaffold grafted with a mixture comprising a GFR-binding compound as defined in the present disclosure (ID SEQ NO: 2) and a RGD peptide, after 24 hours of culture. The actin filaments were immunostained by using Alexa 488-phalloidin. The focal adhesions were represented by immunostaining with anti-vinculin. The nucleus was stained with DAPI and is represented by a circle in the center of the cell. Scale bar: 5 μm. (c) is a diagram representing the grafting density of a radiolabeled GFR-binding compound as defined in the present disclosure covalently grafted on a polymer scaffold and of a radiolabeled GFR-binding compound and a non-labeled RGD peptide both grafted on a polymer scaffold. The measurements were performed by using radioactivity quantification (no significant difference was observed). […]
substance,measurement,value
"SEQ ID NO: 2: GFR-binding compound as defined in the present disclosure, grafted with a RGD peptide on a polymer scaffold (KVGKASSAPTKLSAISMLYLDDMGVPTLKNYQNMVVR; also: grafted with RGD peptide on polymer scaffold)",morphology of neoplastic cells (immunofluorescence),Spheroid-like structures of neoplastic cells become predominant
